{"source": "patent US12121518B2", "about": "“PARP-1 and methods of use thereof” (The Board of Supervisors of Louisiana State University and …, priority 2017, dated 2024)", "key": {"[1]": {"tested_on": "APC^Min-induced tumor burden", "experiment": "APC^Min/+ spontaneous intestinal tumorigenesis mouse model", "type": "in vivo", "conditions": "APC^Min/+ mice; for intestinal tumor burden: assessed at 16 weeks of age", "text": "If chronic inflammation is the sole mechanism by which PARP-1 participates in colon tumorigenesis, then the ability to severely block inflammation upon inhibition of the enzyme, pharmacologically or genetically, should almost entirely alleviate the tumor burden. According to the above data, however, this is not the case. […] In general, APC^Min/+ mice have a rather short lifespan and often die not only as a result of tumor burden but also due to development of severe anemia, substantial cachexia, and/or intestinal intussusceptions. To this end, C57BL/6 PARP-1^+/− and PARP-1^−/− mice were generated in the APC^Min/+ background (FIG. 39). PARP-1 heterozygosity provided remarkable protection against tumor development (FIG. 33A). […] Conversely, PARP-1 knockout promoted an increase in the number of small tumors.\nTumor models, assessment of tumor burden and adoptive transfer—For the azoxymethane/Dextran Sulfate Sodium (AOM/DSS)-induced tumorigenesis model, six to eight weeks old WT, PARP-1^+/− or PARP-1^−/− mice received a single dose (10 mg/kg) of AOM, i.p., followed by 4 cycles of 1.25% DSS provided in drinking water. Each cycle consisted of a week of DSS water separated by 2 weeks of regular water. […] At week 22 after the start of the experimental protocol, mice were sacrificed by CO2 asphyxiation. Colons, spleens, and blood were collected for analysis. Colons were opened longitudinally and washed with PBS to assess the tumor burdens using a dissecting microscope. For the APC^Min-mediated model, APC^Min/+, APC^Min/+PARP-1^+/−, or APC^Min/+PARP-1^−/− male mice were sacrificed at 16 weeks of age. […] Sacrificed mice were processed as described above except that the tumor burden was assessed along the whole intestinal track. Tumors were counted and divided in groups lower than 2 mm, 2-4 mm, and tumors bigger than 4 mm in diameter.\nTissue processing, immunohistochemistry, immunofluorescence and cytokines measurement—Some tissues were fixed in buffered formalin (10%), paraffin-embedded, then sectioned. Serial sections were subjected to H&E staining, immunohistochemistry (IHC) or immunofluorescence, as described (33), with antibodies to PCNA (Novusbio, Littleton, CO), COX-2 (Santa Cruz Biotechnology, Santa Cruz, CA), ICAM-1 (Santa Cruz Biotechnology), CD8 (Santa Cruz Biotechnology), or Gr1 (eBioscience, San Diego, USA) as previously described (34). Some of the sections were subjected to immunofluorescence with antibodies to CD8 or Gr1. Blood, collected by cardiac puncture, was run through a Microtainer Serum Separator tube (BD, Franklin Lake, NJ). The collected sera were immediately stored at −80° C. for future use and analysis. Cytokine levels were assessed for TNF-α (ELM-TNFα-1), IL-6 (ELM-IL-6-1), and MCP-1 (ELM-MCP1) by ELISA (all from RayBiotech, Norcross, GA) according to the manufacturer's instructions and recommendations."}, "ARG-1, iNOS, COX2": {"tested_on": "ARG-1, iNOS, COX2", "experiment": "Immunoblot of ARG-1, iNOS, COX2 and related factors in bone marrow-derived MDSCs", "type": "cell-based, mouse", "text": "(I) Positive control for PARP-1 trapping.\nCell fractionation, protein extraction and immunoblot analysis—Tumor tissues or cells were harvested and homogenized in RIPA lysis buffer (Santa Cruz Biotechnology) containing a cocktail of protease and phosphatase inhibitors on ice. Nuclear fractions were isolated as described (35) and the remaining chromatin pellets were washed then suspended in an isotonic buffer followed by sonication. […] Protein expression signals developed by ECL (Pierce, ThermoFisher Scientific) were determined by a G:Box Gel Image Analysis System (Syngene, Cambridge, UK) equipped with the GeneSys image capture software."}, "perforin": {"tested_on": "perforin", "experiment": "Perforin immunoblot in CD3/CD28-stimulated spleen CD3+ T cells", "type": "cell-based", "conditions": "3 days", "description": "CD3^+ T cells were isolated from spleen then stimulated with antibodies to CD3 and CD28 for 3 days. Protein extracts were analyzed by immunoblotting with antibodies to perforin (a marker of T cell function) or GAPDH. Note that the 4 nM concentration increased, while the 1 mM decreased, perforin levels."}, "steroid-resistant asthma": {"tested_on": "steroid-resistant asthma", "experiment": "Ovalbumin/LPS/IFNγ-based mouse model of steroid-resistant asthma", "type": "in vivo", "conditions": "5 mg/kg", "description": "(§1) Balb/c mice were sensitized by i.p. injection of 20 μg of Ova in 2.25 mg aluminium hydroxide on days 1 and 14. Steroid resistance was induced by intranasal instillation of Lps (10 μg/mouse) on day 27. Mice were treated with s.c injection of dexmethasone (5 mg/kg) on days 29 and 30. Mice were challenged with aerosolized 1% OVA on days 28, 29, 30 for 20 minutes. Airway hyper responsiveness was measured using plesthesmography 24 hours after the last OVA challenge. Statistics are not included.\nas §1, with “Balb I c” for “Balb/c”, “µg/mouse)” for “μg/mouse)”, “All mice were euthanized 48” for “Airway hyper responsiveness was measured using plesthesmography 24”, “challenge then subjected to broncholaveolar lavage. Inflammatory cells were differentiated and assessed using Diff Quick staining.” for “challenge.”\nas §1, with “All mice were euthanized 48” for “Airway hyper responsiveness was measured using plesthesmography 24”, “challenge. Cytokines were measured in the collected serum and BAL fluid using multiplex assay. And IgE production was assessed busing sandwich ELISA.” for “challenge.”\nObjective: To investigate whether PARP inhibition could restore steroid sensitivity to block LPS/IFN-γ-induced neutrophilia and AHR in steroid-resistant asthma model of the disease. Methods: An ovalbumin/LPS/IFNγ-based model of steroid-resistant murine asthma and an airway epithelial cell culture system were used in this study."}, "[2]": {"tested_on": "bone marrow-derived MDSCs", "conditions": "co-culture without drug"}, "allograft breast cancer": {"tested_on": "allograft breast cancer", "conditions": "50 mg/kg daily; cited from earlier work"}}, "note": "Entries after “also recorded” stand apart in the source; their conditions may differ. Where two headings read alike, the source gives them in different places."}
{"smiles": "O=C(c1cc(Cc2n[nH]c(=O)c3ccccc23)ccc1F)N1CCN(C(=O)C2CC2)CC1", "note": "[olaparib]", "values": [{"measurement": "intestinal tumor burden", "setting": "[1]; 5 mg/kg i.p. twice a week", "value": "good protection against the tumor burden; also recorded: good protection against tumor development"}, {"measurement": "intestinal tumor burden", "setting": "[1]; 5 mg/kg i.p. twice a week, listed as Olaparib", "value": "reduces the tumor burden"}, {"measurement": "intestinal tumor burden", "setting": "[1]; 25 mg/kg i.p. twice a week", "value": "no protection against the burden; also recorded: no significant protection"}, {"measurement": "systemic inflammation", "setting": "[1]", "value": "effective at blocking systemic inflammation"}, {"measurement": "cachexia (body weight)", "setting": "[1]; high dose (25 mg/kg)", "value": "did not"}, {"measurement": "cachexia (body weight)", "setting": "[1]; moderate dose (5 mg/kg)", "value": "protected against cachexia"}, {"measurement": "increase in ARG-1, iNOS and COX2 during MDSC differentiation", "setting": "ARG-1, iNOS, COX2; 4 nM, single treatment 24 h after plating", "value": "sufficient to prevent the increase in ARG-1, iNOS, and COX2"}, {"measurement": "ARG-1 and iNOS in MDSCs stimulated by co-culture with MC-38 cells", "setting": "ARG-1, iNOS, COX2; low and high concentrations (4 nM, 1 μM)", "value": "inhibitory effects"}, {"measurement": "overall levels of STAT3 (and phosphorylated forms)", "setting": "ARG-1, iNOS, COX2; low concentration 4 nM", "value": "increased the overall levels of STAT3"}, {"measurement": "perforin levels (marker of T cell function)", "setting": "perforin; 4 nM", "value": "increased"}, {"measurement": "perforin levels (marker of T cell function)", "setting": "perforin", "value": "decreased"}, {"measurement": "OVA-specific IgE secretion in BALF and serum", "setting": "steroid-resistant asthma", "value": "marked reduction in OVA-specific IgE secretion"}, {"measurement": "Th2 cytokine production", "setting": "steroid-resistant asthma", "value": "marked reduction in Th2 cytokine production"}, {"measurement": "established steroid-resistant asthma manifestation", "setting": "steroid-resistant asthma", "value": "reversed the established steroid-resistant asthma manifestation in mice"}, {"measurement": "infiltration of inflammatory cells into the airways", "setting": "steroid-resistant asthma", "value": "blocked the infiltration of inflammatory cells into the airways"}, {"measurement": "suppressive activity of MDSCs on T-cell proliferation", "setting": "[2]; 4 nM", "value": "significantly reduced"}, {"measurement": "suppressive activity of MDSCs on T-cell proliferation", "setting": "[2]; high concentration 5 μM", "value": "blocked the function of MDSCs completely"}, {"measurement": "suppressive activity of MDSCs on T-cell proliferation", "setting": "[2]; moderate concentration 0.1 μM", "value": "blocked the function of MDSCs completely"}, {"measurement": "effect on anti-PD1 immunotherapy", "setting": "allograft breast cancer", "value": "enhances anti-PD1 immunotherapy"}]}
